Assay results: ChEMBL document CHEMBL1201862, “PubChem BioAssay data set” (2004)
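A five-concentration, 48-hour dose response in 96-well plates underlies each endpoint, interpolated linearly between surrounding concentrations. Here, GI50 denotes the concentration required for 50% inhibition of growth.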 Activity calls are given as the source filed them. Cut-off read from the data, not from the text of the source: active = GI50 up to about 1.1 µM and inactive = higher. *1 amine or outer side, *2 acyl side, *3 side chain or, on linkers, in order; H or OH if unused. Where a SMILES comes first, the peptide text is derived from it. Bridges are numbered along the chain shown (N, C = ends). [ ]: non-standard residue; d: D form. The star is where a group is joined. X36 = O=C(C(CCCCNO[*:3])N[*:1])[*:2]; Fmoc = O=C(OCC1c2ccccc2-c2ccccc21)*

Experiments:
Assay in all cases: NCI-60 cell line screen, 48 h
[1] = system: BT-549
[2] = system: HCC 2998
[3] = system: HCT-116
[4] = system: Hs-578T
[5] = system: IGROV-1
[6] = system: KM12
[7] = system: M14
[8] = system: MDA-MB-231
[9] = system: Malme-3M
[10] = system: NCI-H522
[11] = system: NCI/ADR-RES
[12] = system: OVCAR-4
[13] = system: OVCAR-5
[14] = system: RXF 393
[15] = system: SF-268
[16] = system: SF-539
[17] = system: SK-MEL-28
[18] = system: UACC-257
[19] = system: UACC-62
[20] = system: UO-31

Measured: GI50

NC(=O)CNC(=O)C1CCCN1C(=O)C1CCCCNOC(=O)CCC(NC(=O)OCC2c3ccccc3-c3ccccc32)C(=O)NC(Cc2c[nH]c3ccccc23)C(=O)N1 (stereo not given) (Fmoc-EW[X36]PG-NH2; ester 1-3; configuration not given here)
inactive: [1] > 100 µM | [2] > 100 µM | [3] > 100 µM | [4] > 100 µM | [5] > 100 µM | [6] > 100 µM | [7] 54.3 µM | [8] 15.2 µM | [9] > 100 µM | [10] > 100 µM | [11] > 100 µM | [12] > 100 µM | [13] > 100 µM | [14] > 100 µM | [15] > 100 µM | [16] > 100 µM | [17] > 100 µM | [18] > 100 µM | [19] > 100 µM | [20] 24.9 µM
